# Test results published in article PMC8881002 (Journal of molecular structure, 2021).
# Target: T1, electric eel AChE (Electrophorus electricus, UniProt O42275)
# Test: Kinetic analysis of AChE inhibition
# Format: biochemical
# Settings: not given
# T1 sequence (O42275 24-633): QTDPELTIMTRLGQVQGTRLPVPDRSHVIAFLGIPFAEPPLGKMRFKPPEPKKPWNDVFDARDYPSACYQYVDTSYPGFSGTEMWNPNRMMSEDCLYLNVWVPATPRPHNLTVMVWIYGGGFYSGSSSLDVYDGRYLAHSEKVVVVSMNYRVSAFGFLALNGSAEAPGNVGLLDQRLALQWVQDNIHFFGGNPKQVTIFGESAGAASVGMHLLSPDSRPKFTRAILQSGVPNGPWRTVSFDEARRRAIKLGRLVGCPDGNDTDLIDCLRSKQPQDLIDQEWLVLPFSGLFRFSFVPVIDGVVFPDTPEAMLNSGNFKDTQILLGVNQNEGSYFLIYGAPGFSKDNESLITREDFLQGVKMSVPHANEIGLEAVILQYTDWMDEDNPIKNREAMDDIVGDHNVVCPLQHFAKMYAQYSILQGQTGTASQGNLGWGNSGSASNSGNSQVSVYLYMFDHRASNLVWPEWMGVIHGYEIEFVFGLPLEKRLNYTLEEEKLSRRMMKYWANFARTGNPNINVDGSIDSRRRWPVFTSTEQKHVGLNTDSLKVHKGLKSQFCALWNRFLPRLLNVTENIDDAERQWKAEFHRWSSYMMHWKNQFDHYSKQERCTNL
row,SMILES,Ki
1,"COc1cc2c(cc1OC)C(=O)C(CC1CCN(Cc3cccnc3)CC1)C2 (centres unmarked) [Analog 2, 5,6-dimethoxy-2-((1-(pyridin-3-ylmethyl)piperidin-4-yl)methyl)-2,3-dihydro-1H-inden-1-one]",62 nM

# Same assay, conditions: Lineweaver-Burke double reciprocal plot, electric eel AChE
row,SMILES,type of inhibition
1,"COc1cc2c(cc1OC)C(=O)C(CC1CCN(Cc3cccnc3)CC1)C2 (centres unmarked) [Analog 2, 5,6-dimethoxy-2-((1-(pyridin-3-ylmethyl)piperidin-4-yl)methyl)-2,3-dihydro-1H-inden-1-one]",mixed-type inhibition

# Target: T1, electric eel AChE
# Test: biochemical
# Settings: not given
row,SMILES,IC50
1,"COc1cc2c(cc1OC)C(=O)C(CC1CCN(Cc3cccnc3)CC1)C2 (centres unmarked) [Analog 2, 5,6-dimethoxy-2-((1-(pyridin-3-ylmethyl)piperidin-4-yl)methyl)-2,3-dihydro-1H-inden-1-one]",51 nM
2,"COc1cc2c(cc1OC)C(=O)C(CC1CCN(Cc3c(Cl)cncc3Cl)CC1)C2 (centres unmarked) [Analog 8, 2-((1-((3,5-dichloropyridin-4-yl)methyl)piperidin-4-yl)methyl)-5,6-dimethoxy-2,3-dihydro-1H-inden-1-one]",4320 nM
3,"COc1cc2c(cc1OC)C(=O)C(CC1CCN(Cc3ccnc(Br)c3)CC1)C2 (centres unmarked) [Analog 6, 2-((1-((2-bromopyridin-4-yl)methyl)piperidin-4-yl)methyl)-5,6-dimethoxy-2,3-dihydro-1H-inden-1-one]",1800 nM
4,"COc1cc2c(cc1OC)C(=O)C(CC1CCN(Cc3cccnc3F)CC1)C2 (centres unmarked) [Analog 9, 2-((1-((2-fluoropyridin-3-yl)methyl)piperidin-4-yl)methyl)-5,6-dimethoxy-2,3-dihydro-1H-inden-1-one]",718 nM
5,"COc1cc2c(cc1OC)C(=O)C(CC1CCN(Cc3ccncc3Cl)CC1)C2 (centres unmarked) [Analog 7, 2-((1-((3-chloropyridin-4-yl)methyl)piperidin-4-yl)methyl)-5,6-dimethoxy-2,3-dihydro-1H-inden-1-one]",364 nM
6,"COc1cc2c(cc1OC)C(=O)C(CC1CCN(Cc3ccccn3)CC1)C2 (centres unmarked) [Analog 1, 5,6-dimethoxy-2-((1-(pyridin-2-ylmethyl)piperidin-4-yl)methyl)-2,3-dihydro-1H-inden-1-one]",793 nM
7,"COc1cc2c(cc1OC)C(=O)C(CC1CCN(Cc3cccnc3Br)CC1)C2 (centres unmarked) [Analog 11, 2-((1-((2-bromopyridin-3-yl)methyl)piperidin-4-yl)methyl)-5,6-dimethoxy-2,3-dihydro-1H-inden-1-one]",1120 nM
8,"COc1cc2c(cc1OC)C(=O)C(CC1CCN(Cc3ccncc3)CC1)C2 (centres unmarked) [Analog 3, 5,6-dimethoxy-2-((1-(pyridin-4-ylmethyl)piperidin-4-yl)methyl)-2,3-dihydro-1H-inden-1-one]",334 nM
9,"COc1cc2c(cc1OC)C(=O)C(CC1CCN(Cc3ccnc(Cl)c3)CC1)C2 (centres unmarked) [Analog 5, 2-((1-((2-chloropyridin-4-yl)methyl)piperidin-4-yl)methyl)-5,6-dimethoxy-2,3-dihydro-1H-inden-1-one]",2060 nM
10,"COc1cc2c(cc1OC)C(=O)C(CC1CCN(Cc3ccnc4ccccc34)CC1)C2 (centres unmarked) [Analog 4, 5,6-dimethoxy-2-((1-(quinolin-4-ylmethyl)piperidin-4-yl)methyl)-2,3-dihydro-1H-inden-1-one]",356 nM
11,"COc1cc2c(cc1OC)C(=O)C(CC1CCN(Cc3cccnc3Cl)CC1)C2 (centres unmarked) [Analog 10, 2-((1-((2-chloropyridin-3-yl)methyl)piperidin-4-yl)methyl)-5,6-dimethoxy-2,3-dihydro-1H-inden-1-one]",414 nM
12,"COc1cc2c(cc1OC)C(=O)C(CC1CCN(Cc3ccc(C)nc3)CC1)C2 (centres unmarked) [Analog 12, 5,6-dimethoxy-2-((1-((6-methylpyridin-3-yl)methyl)piperidin-4-yl)methyl)-2,3-dihydro-1H-inden-1-one]",928 nM
